Results from publication PMC11912224, “A general approach for activity-based protein profiling of oxidoreductases with redox-differentiated diarylhalonium warheads” (Chemical Science, 2025).

Key:
Test in all cases: covalent labelling, streptavidin enrichment, LC-MS/MS
Conditions in all cases: 30 uM probe, 1 h, mouse liver pieces
[1] = target: T1, CYP2D10 (Mus musculus, UniProt P24456)
T1 construct: native, in intact mouse liver pieces
T1 sequence (P24456 1-504): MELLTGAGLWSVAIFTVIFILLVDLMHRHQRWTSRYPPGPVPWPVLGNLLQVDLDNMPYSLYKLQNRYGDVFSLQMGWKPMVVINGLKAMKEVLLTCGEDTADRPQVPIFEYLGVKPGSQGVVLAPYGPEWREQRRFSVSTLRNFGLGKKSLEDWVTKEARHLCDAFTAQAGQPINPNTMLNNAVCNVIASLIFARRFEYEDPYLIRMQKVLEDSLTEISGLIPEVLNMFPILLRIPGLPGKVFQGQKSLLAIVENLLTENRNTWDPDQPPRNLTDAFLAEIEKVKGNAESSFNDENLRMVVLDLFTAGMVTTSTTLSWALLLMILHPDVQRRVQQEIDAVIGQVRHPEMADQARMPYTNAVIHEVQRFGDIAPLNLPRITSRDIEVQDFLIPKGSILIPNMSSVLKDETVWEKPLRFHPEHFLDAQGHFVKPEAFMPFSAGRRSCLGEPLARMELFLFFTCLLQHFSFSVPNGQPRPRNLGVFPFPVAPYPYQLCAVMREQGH

[2] = target: T2, glycerol-3-phosphate dehydrogenase mitochondrial (GPD2) (Mus musculus, UniProt Q64521)
T2 construct: native, in intact mouse liver pieces
T2 sequence (Q64521 43-727): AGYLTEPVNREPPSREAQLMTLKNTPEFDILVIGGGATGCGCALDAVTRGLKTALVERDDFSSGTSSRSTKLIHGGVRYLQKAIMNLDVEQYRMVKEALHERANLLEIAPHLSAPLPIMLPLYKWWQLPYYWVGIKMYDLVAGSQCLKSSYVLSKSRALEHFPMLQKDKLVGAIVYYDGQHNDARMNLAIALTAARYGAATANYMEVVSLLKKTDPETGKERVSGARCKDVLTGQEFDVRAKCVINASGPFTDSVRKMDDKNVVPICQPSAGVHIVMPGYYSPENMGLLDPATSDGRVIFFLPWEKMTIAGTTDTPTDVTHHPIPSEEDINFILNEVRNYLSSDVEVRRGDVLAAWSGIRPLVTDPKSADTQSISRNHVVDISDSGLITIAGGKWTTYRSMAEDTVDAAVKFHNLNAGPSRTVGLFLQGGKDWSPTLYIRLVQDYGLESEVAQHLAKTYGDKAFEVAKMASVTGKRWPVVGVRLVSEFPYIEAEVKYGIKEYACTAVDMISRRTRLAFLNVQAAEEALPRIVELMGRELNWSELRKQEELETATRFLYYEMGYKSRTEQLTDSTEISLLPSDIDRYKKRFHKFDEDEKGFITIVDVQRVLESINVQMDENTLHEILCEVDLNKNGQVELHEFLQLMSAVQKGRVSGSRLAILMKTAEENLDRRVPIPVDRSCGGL

[3] = target: T3, choline dehydrogenase (CHDH, mCHDH) (Mus musculus, UniProt Q8BJ64)
T3 construct: native, in intact mouse liver pieces
T3 sequence (Q8BJ64 35-596): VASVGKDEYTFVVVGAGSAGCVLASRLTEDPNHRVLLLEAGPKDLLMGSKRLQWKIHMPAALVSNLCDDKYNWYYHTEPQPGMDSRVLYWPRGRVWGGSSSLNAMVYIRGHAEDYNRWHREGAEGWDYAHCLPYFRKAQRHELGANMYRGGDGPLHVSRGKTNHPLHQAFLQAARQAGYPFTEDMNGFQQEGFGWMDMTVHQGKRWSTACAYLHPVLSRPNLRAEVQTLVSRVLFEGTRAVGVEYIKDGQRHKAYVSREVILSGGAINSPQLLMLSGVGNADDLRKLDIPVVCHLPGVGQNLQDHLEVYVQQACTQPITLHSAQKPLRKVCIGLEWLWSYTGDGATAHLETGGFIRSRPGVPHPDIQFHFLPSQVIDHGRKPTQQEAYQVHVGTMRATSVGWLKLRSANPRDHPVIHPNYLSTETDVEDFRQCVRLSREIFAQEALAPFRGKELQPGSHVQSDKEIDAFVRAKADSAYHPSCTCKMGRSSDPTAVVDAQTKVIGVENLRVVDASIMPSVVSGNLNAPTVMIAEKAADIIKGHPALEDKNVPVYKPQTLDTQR

[4] = target: T4, monoamine oxidase A (MAOA) (Mus musculus, UniProt Q64133)
T4 construct: native, in intact mouse liver pieces
T4 sequence (Q64133 1-526): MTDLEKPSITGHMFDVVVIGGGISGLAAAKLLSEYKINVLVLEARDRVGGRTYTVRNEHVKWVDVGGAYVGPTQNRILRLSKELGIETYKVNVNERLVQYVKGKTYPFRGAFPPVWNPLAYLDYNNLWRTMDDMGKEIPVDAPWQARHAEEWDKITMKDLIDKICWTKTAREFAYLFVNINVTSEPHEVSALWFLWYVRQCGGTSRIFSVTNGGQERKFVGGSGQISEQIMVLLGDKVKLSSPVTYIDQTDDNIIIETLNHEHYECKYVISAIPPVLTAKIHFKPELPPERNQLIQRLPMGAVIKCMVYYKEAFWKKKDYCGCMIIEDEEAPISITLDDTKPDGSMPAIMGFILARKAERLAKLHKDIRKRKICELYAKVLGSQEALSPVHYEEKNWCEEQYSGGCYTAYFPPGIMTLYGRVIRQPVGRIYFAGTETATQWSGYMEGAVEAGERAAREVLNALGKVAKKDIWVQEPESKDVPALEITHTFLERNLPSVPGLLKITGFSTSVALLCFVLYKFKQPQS

[5] = target: T5, aldehyde oxidase 1 (AOX1) (Mus musculus, UniProt O54754)
T5 construct: native, in intact mouse liver pieces
T5 sequence (O54754 1-1333): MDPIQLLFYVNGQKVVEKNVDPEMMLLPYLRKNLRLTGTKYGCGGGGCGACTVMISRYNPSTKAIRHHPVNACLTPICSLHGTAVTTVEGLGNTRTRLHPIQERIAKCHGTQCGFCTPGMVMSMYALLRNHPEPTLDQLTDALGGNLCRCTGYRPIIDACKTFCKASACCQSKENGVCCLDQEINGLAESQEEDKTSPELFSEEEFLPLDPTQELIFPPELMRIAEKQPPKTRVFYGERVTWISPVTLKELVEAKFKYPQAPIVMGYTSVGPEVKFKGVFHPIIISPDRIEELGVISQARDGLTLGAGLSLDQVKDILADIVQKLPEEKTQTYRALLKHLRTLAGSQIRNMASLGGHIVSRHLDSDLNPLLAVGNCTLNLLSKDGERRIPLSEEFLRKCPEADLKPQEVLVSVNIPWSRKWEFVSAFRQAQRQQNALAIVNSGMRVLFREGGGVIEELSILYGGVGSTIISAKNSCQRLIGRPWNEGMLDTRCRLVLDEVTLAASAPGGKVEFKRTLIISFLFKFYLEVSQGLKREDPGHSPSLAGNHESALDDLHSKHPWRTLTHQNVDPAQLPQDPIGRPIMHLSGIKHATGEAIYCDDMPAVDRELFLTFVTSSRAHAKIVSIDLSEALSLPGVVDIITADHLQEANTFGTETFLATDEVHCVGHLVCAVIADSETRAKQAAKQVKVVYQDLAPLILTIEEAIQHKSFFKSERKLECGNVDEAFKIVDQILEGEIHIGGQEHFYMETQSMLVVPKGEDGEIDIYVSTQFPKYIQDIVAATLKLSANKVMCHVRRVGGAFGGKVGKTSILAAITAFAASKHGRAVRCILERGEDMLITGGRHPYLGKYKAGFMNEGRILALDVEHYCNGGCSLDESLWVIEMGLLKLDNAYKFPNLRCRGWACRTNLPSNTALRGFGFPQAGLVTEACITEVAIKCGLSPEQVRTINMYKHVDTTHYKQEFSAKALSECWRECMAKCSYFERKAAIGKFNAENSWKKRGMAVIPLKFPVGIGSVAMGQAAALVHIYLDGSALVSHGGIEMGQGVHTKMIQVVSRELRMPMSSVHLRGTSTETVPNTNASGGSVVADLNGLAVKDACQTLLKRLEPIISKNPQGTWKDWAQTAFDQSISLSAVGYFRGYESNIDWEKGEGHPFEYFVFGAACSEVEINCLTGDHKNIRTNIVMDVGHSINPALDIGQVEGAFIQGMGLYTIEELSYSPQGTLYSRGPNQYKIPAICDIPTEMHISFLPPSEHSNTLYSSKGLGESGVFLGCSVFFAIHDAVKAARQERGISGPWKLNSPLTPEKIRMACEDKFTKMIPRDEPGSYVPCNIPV

`[N-]=[N+]=NCCCCCCCCCCNC(=O)c1ccc2c(c1)[Br+]c1ccccc1-2` [3ga, diphenylenebromonium-based probe 3ga] was tested, and the “covalent labelling, streptavidin enrichment, LC-MS/MS” value (shortened to “covalent labelling”) [1] was “two significantly enriched CYP450s (CYP27A1, CYP2D10)” and the “covalent labelling” value [2] was “GPD2 was exclusively enriched by diarylbromonium probe 3ga”.
For `[N-]=[N+]=NCCCCCCCCCCNC(=O)c1ccc2c(c1)-c1ccccc1[Cl+]2` [3ha, diphenylenechloronium-based probe 3ha], the “covalent labelling” value [3] was “choline dehydrogenase (CHDH), which is similar to the bacterial choline oxidase”.
With `[N-]=[N+]=NCCOCCOCCOCCNC(=O)c1ccc2c(c1)-c1ccccc1[Br+]2` [3fb, diphenylenebromonium probe 3fb] the “covalent labelling” value [4] was “MAOA exclusively by diarylbromonium probe 3fb”.
For `[N-]=[N+]=NCCCCCCCCCCNC(=O)c1ccc2c(c1)[I+]c1ccccc1-2` [3da, diphenyleneiodonium-based probe 3da], the “covalent labelling” value [5] was “five are oxidoreductases (CYP27A1, CYP2D10, CYP3A25, HMOX2, and AOX1)”.
